Measured values reported in ChEMBL document CHEMBL1145124, “Identification and prediction of promiscuous aggregating inhibitors among known drugs” (J Med Chem, 2003).

How the values were obtained:
[1] = target: T1, Chymotrypsin-C (Homo sapiens) (UniProt Q99895); assay: Inhibition of chymotrypsin at 250 uM; conditions: unidentified
T1 sequence (whole entry): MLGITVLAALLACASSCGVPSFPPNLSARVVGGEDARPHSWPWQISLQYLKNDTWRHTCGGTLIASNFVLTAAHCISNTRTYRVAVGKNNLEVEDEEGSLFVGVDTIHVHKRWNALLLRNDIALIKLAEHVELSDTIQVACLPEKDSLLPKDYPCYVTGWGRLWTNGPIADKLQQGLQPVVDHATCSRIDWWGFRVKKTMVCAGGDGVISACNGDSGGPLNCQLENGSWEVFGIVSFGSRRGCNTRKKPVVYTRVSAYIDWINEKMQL

[2] = target: T2, Malate dehydrogenase, mitochondrial (Sus scrofa) (UniProt P00346); assay: Compound was tested for the inhibition of malate dehydrogenase (MDH) at 100 uM
T2 sequence (whole entry): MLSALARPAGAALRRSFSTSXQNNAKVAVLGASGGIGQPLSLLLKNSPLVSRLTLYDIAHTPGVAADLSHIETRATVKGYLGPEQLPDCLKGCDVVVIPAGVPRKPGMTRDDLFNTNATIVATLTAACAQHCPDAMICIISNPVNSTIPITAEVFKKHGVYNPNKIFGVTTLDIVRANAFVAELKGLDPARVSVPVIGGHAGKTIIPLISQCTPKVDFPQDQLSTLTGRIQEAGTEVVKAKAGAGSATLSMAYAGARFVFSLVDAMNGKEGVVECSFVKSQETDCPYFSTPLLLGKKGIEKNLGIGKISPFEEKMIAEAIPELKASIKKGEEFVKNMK

[3] = target: Beta-lactamase (Escherichia coli K-12) (UniProt P00811); assay: Inhibition of beta-lactamase at 100 uM
[4] = target: T3, Malate dehydrogenase, cytoplasmic (Homo sapiens) (UniProt P40925); assay: Inhibition of malate dehydrogenase (MDH) at 400 uM
T3 sequence (whole entry): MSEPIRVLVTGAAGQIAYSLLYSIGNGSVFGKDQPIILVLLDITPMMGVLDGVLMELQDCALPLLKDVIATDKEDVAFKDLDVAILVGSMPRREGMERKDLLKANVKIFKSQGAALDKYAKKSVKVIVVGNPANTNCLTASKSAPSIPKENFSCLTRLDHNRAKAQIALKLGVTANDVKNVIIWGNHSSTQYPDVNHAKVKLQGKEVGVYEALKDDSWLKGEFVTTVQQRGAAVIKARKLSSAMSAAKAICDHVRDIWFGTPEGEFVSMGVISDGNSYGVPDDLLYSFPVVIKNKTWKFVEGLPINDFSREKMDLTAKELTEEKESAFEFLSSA

[5] = target: T2, Malate dehydrogenase, mitochondrial (Sus scrofa); assay: Compound was tested for the inhibition of malate dehydrogenase (MDH) at 200 uM
Beta-lactamase [6] = target: T4, Beta-lactamase (Escherichia coli K-12, UniProt P00811); assay: Compound was tested for the inhibition of beta-lactamase
Chymotrypsinogen A [7] = target: T5, Chymotrypsinogen A (Bos taurus, UniProt P00766); assay: Fold decrease in IC50 vs chymotrypsinogen on pre-incubation; increase
[8] = Mean maximal plasma concentration; assay type: ADME, organism-based
Chymotrypsinogen A [9] = target: T5, Chymotrypsinogen A; assay: Compound was tested for the inhibition of Chymotrypsinogen
[10] = target: T2, Malate dehydrogenase, mitochondrial (Sus scrofa); assay: Compound was tested for the inhibition of malate dehydrogenase (MDH) at 50 uM
[11] = target: T6, Malate dehydrogenase, mitochondrial (Sus scrofa, UniProt P00346); assay: Fold increase in IC50 vs malate dehydrogenase (MDH) with 1 mg/ml saponin; increase
T6 sequence (P00346 whole entry): T2 sequence (whole entry)

[12] = target: Chymotrypsinogen A (Bos taurus) (UniProt P00766); assay: Compound was tested for the inhibition of Chymotrypsinogen at 400 uM
[13] = target: Chymotrypsinogen A (Bos taurus) (UniProt P00766); assay: Compound was tested for the inhibition of Chymotrypsinogen at 250 uM (Inhibition is time dependent)
[14] = Topical dosage on […] scabies; assay type: functional
Beta-lactamase [15] = target: T4, Beta-lactamase; assay: Effect of increase in enzyme concentration by 10 times on the inhibition of beta-lactamase by the compound:No inhibition
Beta-lactamase [16] = target: T4, Beta-lactamase; assay: Compound was tested for the inhibition beta-lactamase with 0.1 mg/ml saponin:No inhibition
Beta-lactamase [17] = target: T4, Beta-lactamase; assay: Effect of pre-incubation with enzyme on the inhibition of beta-lactamase:No inhibition
[18] = target: T6, Malate dehydrogenase, mitochondrial; assay: Fold decrease in IC50 vs malate dehydrogenase (MDH) on pre-incubation; no change

Sequence of Beta-lactamase (Escherichia coli K-12) (P00811 whole entry): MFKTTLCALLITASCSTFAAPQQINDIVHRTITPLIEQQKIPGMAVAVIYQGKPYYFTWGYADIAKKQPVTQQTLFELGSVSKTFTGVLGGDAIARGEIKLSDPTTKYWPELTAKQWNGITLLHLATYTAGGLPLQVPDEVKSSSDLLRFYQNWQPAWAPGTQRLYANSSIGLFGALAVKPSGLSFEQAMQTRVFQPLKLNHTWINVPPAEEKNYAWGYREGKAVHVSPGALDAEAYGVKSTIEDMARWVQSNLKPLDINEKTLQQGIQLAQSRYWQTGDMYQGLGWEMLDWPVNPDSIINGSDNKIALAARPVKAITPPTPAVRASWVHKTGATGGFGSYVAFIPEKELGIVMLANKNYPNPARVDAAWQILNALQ
T4 sequence (P00811 whole entry): as above

| Structure (SMILES) | inhibition [1] [%] | inhibition [3] [%] | inhibition [4] [%] | other results |
| --- | --- | --- | --- | --- |
| Cc1cc2nc3c(=O)[nH]c(=O)nc-3n(C[C@H](O)[C@H](O)[C@H](O)CO)c2cc1C | < 5 | < 5 | – | inhibition [2]: < 5% |
| O=C(O)c1cc(-c2ccc(F)cc2F)ccc1O | 13 | < 5 | < 5 | – |
| Nc1ccc(S(=O)(=O)Nc2ncccn2)cc1 | < 5 | < 5 | – | inhibition [5]: < 5% |
| Nc1ccc(O)c(C(=O)O)c1 | < 5 | < 5 | – | inhibition [5]: 18% |
| CCc1cccc2c3c([nH]c12)C(CC)(CC(=O)O)OCC3 (stereo unspecified) | < 5 | < 5 | 9 | – |
| CN(C)CCN(Cc1ccccc1)c1ccccn1 | < 5 | < 5 | < 5 | – |
| O=C(O)CCc1nc(-c2ccccc2)c(-c2ccccc2)o1 [OXAPROZIN] | – | – | – | IC50 (Beta-lactamase [6]): > 400 µM; IC50 (Chymotrypsinogen A [7]): Increase; Cmax [8]: 372 µM; IC50 (Chymotrypsinogen A [9]): 200 µM |
| Cc1c(OCC(F)(F)F)ccnc1C[S+]([O-])c1nc2ccccc2[nH]1 (stereo unspecified) | < 5 | < 5 | < 5 | – |
| Nc1nc(N)c2nc(-c3ccccc3)c(N)nc2n1 | < 5 | < 5 | – | inhibition [10]: 21% |
| CC(C)C(=O)Nc1ccc([N+](=O)[O-])c(C(F)(F)F)c1 | < 5 | < 5 | – | inhibition [2]: < 5% |
| O=C(O)CCCCCCCC(=O)O | < 5 | < 5 | 8 | – |
| COC(=O)Nc1nc2cc(C(=O)c3ccccc3)ccc2[nH]1 | < 5 | < 5 | 15 | – |
| Clc1ccc(COC(Cn2ccnc2)c2ccc(Cl)cc2Cl)c(Cl)c1 (stereo unspecified) [MICONAZOLE] | – | – | – | IC50 (Beta-lactamase [6]): 40 µM; IC50 (Chymotrypsinogen A [9]): 125 µM |
| Cc1oncc1C(=O)Nc1ccc(C(F)(F)F)cc1 | < 5 | < 5 | 12 | – |
| Cc1cccc(Nc2ccccc2C(=O)O)c1C [MEFENAMIC ACID] | – | – | – | IC50 (Beta-lactamase [6]): 350 µM; IC50 [11]: increase; Cmax [8]: 83 µM; inhibition [12]: 41% |
| Nc1c2c(nc3ccccc13)CCCC2 | < 5 | < 5 | 83 | – |
| CN(C)CCOC(c1ccccc1)c1ccccc1 | < 5 | < 5 | < 5 | – |
| O=C1C(CC[S+]([O-])c2ccccc2)C(=O)N(c2ccccc2)N1c1ccccc1 (stereo unspecified) | 27 | < 5 | 83 | – |
| CC(C)[N+](C)(CCOC(=O)C1c2ccccc2Oc2ccccc21)C(C)C | – | < 5 | < 5 | inhibition [13]: 96% |
| CCN(CC)CC(=O)Nc1c(C)cccc1C | < 5 | < 5 | < 5 | – |
| O=C1CCC(N2C(=O)c3ccccc3C2=O)C(=O)N1 (stereo unspecified) | < 5 | < 5 | < 5 | – |
| CC(=O)N(O)CCCCCNC(=O)CCC(=O)N(O)CCCCCNC(=O)CCC(=O)N(O)CCCCCN | < 5 | < 5 | < 5 | – |
| COc1ccc(Cl)cc1C(=O)NCCc1ccc(S(=O)(=O)NC(=O)NC2CCCCC2)cc1 [GLYBURIDE] | – | – | – | IC50 (Beta-lactamase [6]): 300 µM; Cmax [8]: 0.215 µM; IC50 (Chymotrypsinogen A [9]): 360 µM |
| CCCC(C)(COC(N)=O)COC(=O)NC(C)C (stereo unspecified) | < 5 | < 5 | < 5 | – |
| NC(=O)N1c2ccccc2C=Cc2ccccc21 | < 5 | < 5 | 8 | – |
| Cc1cccc(Nc2ccncc2S(=O)(=O)NC(=O)NC(C)C)c1 | < 5 | < 5 | 14 | – |
| O=C1CN(/N=C/c2ccc([N+](=O)[O-])o2)C(=O)N1 | 91 | < 5 | 97 | – |
| Clc1ccccc1C(c1ccccc1)(c1ccccc1)n1ccnc1 [CLOTRIMAZOLE] | – | – | – | IC50 (Beta-lactamase [6]): 20 µM; IC50 (Chymotrypsinogen A [7]): Increase; IC50 (Chymotrypsinogen A [9]): 85 µM |

| Structure (SMILES) | inhibition [1] [%] | inhibition [3] [%] | inhibition [4] [%] | other results |
| --- | --- | --- | --- | --- |
| O=C(OCc1ccccc1)c1ccccc1 [BENZYL BENZOATE] | – | – | – | Topical dosage [14]: 1.2 M; IC50 (Beta-lactamase [6]): 90 µM; IC50 (Chymotrypsinogen A [9]): 250 µM |
| NCCNCCNCCNCCN | < 5 | < 5 | < 5 | – |
| CNCCCC1c2ccccc2C=Cc2ccccc21 | < 5 | < 5 | < 5 | – |
| CC(=O)N1CCN(c2ccc(OCC3COC(Cn4ccnc4)(c4ccc(Cl)cc4Cl)O3)cc2)CC1 (stereo unspecified) [KETOCONAZOLE] | – | – | – | IC50 (Beta-lactamase [15]): Not Active; IC50 (Beta-lactamase [16]): Not Active; IC50 (Beta-lactamase [6]): > 150 µM; IC50 (Beta-lactamase [17]): Not Active; IC50 (Chymotrypsinogen A [9]): > 150 µM |
| Nc1nc2ccc(OC(F)(F)F)cc2s1 | < 5 | < 5 | – | inhibition [5]: < 5% |
| COc1cc2nc(N3CCN(C(=O)c4ccco4)CC3)nc(N)c2cc1OC | < 5 | 13 | – | inhibition [2]: 14% |
| Nc1cc(-c2ccncc2)c[nH]c1=O | < 5 | < 5 | – | inhibition [10]: < 5% |
| NS(=O)(=O)c1cc(C(=O)O)c(NCc2ccco2)cc1Cl | < 5 | < 5 | 21 | – |
| OC(Cn1cncn1)(Cn1cncn1)c1ccc(F)cc1F [FLUCONAZOLE] | – | – | – | IC50 (Beta-lactamase [15]): Not Active; IC50 (Beta-lactamase [16]): Not Active; IC50 (Beta-lactamase [6]): > 400 µM; IC50 (Beta-lactamase [17]): Not Active; IC50 (Chymotrypsinogen A [9]): > 400 µM |
| Cc1ccc(C)c(OCCCC(C)(C)C(=O)O)c1 | < 5 | < 5 | – | inhibition [5]: 14% |
| COC(=O)C1=C(C)NC(C)=C(C(=O)OCCN(C)Cc2ccccc2)C1c1cccc([N+](=O)[O-])c1 (stereo unspecified) [NICARDIPINE] | – | – | – | IC50 [18]: Not Active; Cmax [8]: 0.184 µM; IC50 (Chymotrypsinogen A [9]): 175 µM |
| COc1ccccc1OCC(O)CO (stereo unspecified) | < 5 | < 5 | < 5 | – |
| CCC1(c2ccccc2)C(=O)NCNC1=O | < 5 | < 5 | 13 | – |
| N=C(N)N/N=C/c1c(Cl)cccc1Cl | < 5 | 83 | 20 | – |
| Clc1ccc(CSC(Cn2ccnc2)c2ccc(Cl)cc2Cl)cc1 (stereo unspecified) [SULCONAZOLE] | – | – | – | IC50 (Chymotrypsinogen A [9]): 110 µM |
| Nc1ccc(/N=N/c2ccccc2)c(N)n1 | 96 | < 5 | 34 | – |
| CC(C)Nc1cccnc1N1CCN(C(=O)c2cc3cc(NS(C)(=O)=O)ccc3[nH]2)CC1 [DELAVIRDINE] | – | – | – | IC50 (Beta-lactamase [6]): 90 µM; IC50 (Chymotrypsinogen A [9]): 225 µM |
| NS(=O)(=O)c1cc(C2(O)NC(=O)c3ccccc32)ccc1Cl (stereo unspecified) | < 5 | < 5 | – | inhibition [5]: < 5% |
| Nc1ccc(S(=O)(=O)c2ccc(N)cc2)cc1 | < 5 | < 5 | 11 | – |
| COc1cc(Cc2cnc(N)nc2N)cc(OC)c1OC | < 5 | < 5 | < 5 | – |
| Cc1nccn1CC1CCc2c(c3ccccc3n2C)C1=O (stereo unspecified) | < 5 | < 5 | < 5 | – |
| O=C(O)CCCc1ccc(N(CCCl)CCCl)cc1 | 23 | < 5 | 44 | – |
| COc1ccc2[nH]c([S+]([O-])Cc3ncc(C)c(OC)c3C)nc2c1 (stereo unspecified) | < 5 | < 5 | < 5 | – |
| Clc1ccc(COC(Cn2ccnc2)c2ccc(Cl)cc2Cl)cc1 (stereo unspecified) [ECONAZOLE] | – | – | – | IC50 (Beta-lactamase [6]): 25 µM; IC50 (Chymotrypsinogen A [9]): 150 µM |
| COc1ccc2c(c1)c(CC(=O)O)c(C)n2C(=O)c1ccc(Cl)cc1 | < 5 | < 5 | 7 | – |
| CCn1nc(C(=O)O)c(=O)c2cc3c(cc21)OCO3 | < 5 | < 5 | – | inhibition [10]: < 5% |
| Nc1nnc(-c2cccc(Cl)c2Cl)c(N)n1 | < 5 | < 5 | 11 | – |
